Source: patent US10913720B2, “Benzyloxypyridylcyclopropanecarboxylic acids, pharmaceutical compositions and uses thereof” (Boehringer Ingelheim International GmbH, priority 2017, dated 2021)

Target: human GPR40 receptor (Homo sapiens, UniProt O14842)
Assay: IP1 accumulation measurements using the IPOne assay system
Format: cell-based
Conditions: 1321N1 cells stably expressing human GPR40; 1 h stimulation at 37° C.
Description: IP1 accumulation measurements using the IPOne assay system—1321N1 cells stably expressing human GPR40 receptor (Euroscreen, Belgium) are seeded 24 h before the assay in white 384-well plates in culture medium containing 10% FCS, 1% Na-Pyruvate and 400 μg/mL G418. IP1 is assayed according to the manufacturer's description (Cisbio Bioassays, France). In brief, the assay is started by substitution of the culture medium by stimulation buffer (Hepes 10 mM, CaCl2) 1 mM, MgCl2 0.5 mM, KCl 4.2 mM, NaCl 146 mM, glucose 5.5 mM and LiCl 50 mM, pH 7.4). Cells are stimulated for 1 h at 37° C., 5% CO2 by addition of the compounds that are diluted in stimulation buffer containing LiCl. Assays are stopped by adding HTRF-conjugates (IP1-d2 and Anti-IP1 cryptate Tb) and lysis buffer, provided by the manufacturer. After an incubation time of 1 h at room temperature plates are measured using an EnVision™, Perkin Elmer. The obtained fluorescence ratios at 665/615 […] are then used to calculate the pEC50 values using Assay Explorer 3.3 Software (Accelrys, Inc.) by interpolation using an IP1 reference curve and subsequent sigmoidal curve fitting allowing for a variable hill slope.

Sequence of human GPR40 receptor (O14842 whole entry): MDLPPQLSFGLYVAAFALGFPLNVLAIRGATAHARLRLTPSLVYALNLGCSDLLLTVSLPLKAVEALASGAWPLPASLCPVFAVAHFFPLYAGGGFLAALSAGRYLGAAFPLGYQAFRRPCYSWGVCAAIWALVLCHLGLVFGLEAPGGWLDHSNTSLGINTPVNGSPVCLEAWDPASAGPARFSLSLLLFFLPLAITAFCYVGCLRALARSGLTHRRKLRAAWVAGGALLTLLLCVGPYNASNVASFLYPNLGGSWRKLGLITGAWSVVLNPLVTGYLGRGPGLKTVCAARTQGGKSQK

Row | SMILES | EC50 [nM]
1 | Cc1cc(OCC2CCOCC2)cc(C)c1-c1cccc(COc2ccc([C@H]3C[C@@H]3C(=O)O)nc2)c1 [Example 10, (1S,2S)-2-{5-[2′,6′-Dimethyl-4′-(tetrahydro-pyran-4-ylmethoxy)-biphenyl-3-ylmethoxy]-pyridin-2-yl}-cyclopropanecarboxylic Acid] | 23
2 | Cc1cc(-c2ccc(=O)n(C)c2)cc(C)c1-c1cccc(COc2ccc([C@H]3C[C@@H]3C(=O)O)nc2)c1 [Example 4, (1S,2S)-2-{5-[2′,6′-Dimethyl-4′-(1-methyl-6-oxo-1,6-dihydro-pyridin-3-yl)-biphenyl-3-ylmethoxy]-pyridin-2-yl}-cyclopropanecarboxylic Acid] | 15
3 | Cc1cc(-c2nnn(CC(C)(C)O)n2)cc(C)c1-c1cccc(COc2ccc([C@H]3C[C@@H]3C(=O)O)nc2)c1 [Example 6, (1S,2S)-2-(5-{4′-[2-(2-Hydroxy-2-methyl-propyl)-2H-tetrazol-5-yl]-2′,6′-dimethyl-biphenyl-3-ylmethoxy}-pyridin-2-yl)-cyclopropanecarboxylic Acid] | 9
4 | Cc1cc(OC2CCOCC2)cc(C)c1-c1cccc(COc2ccc([C@H]3C[C@@H]3C(=O)O)nc2)c1 [Example 13, (1S,2S)-2-{5-[2′,6′-Dimethyl-4′-(tetrahydro-pyran-4-yloxy)-biphenyl-3-ylmethoxy]-pyridin-2-yl}-cyclopropanecarboxylic Acid] | 29
5 | COc1cc(-c2cc(C)c(-c3ccc(F)c(COc4ccc([C@H]5C[C@@H]5C(=O)O)nc4)c3)c(C)c2)ccn1 [Example 20, (1S,2S)-2-{5-[4-Fluoro-4′-(2-methoxy-pyridin-4-yl)-2′,6′-dimethyl-biphenyl-3-ylmethoxy]-pyridin-2-yl}-cyclopropanecarboxylic Acid] | 5
6 | CCc1cccc(CC)c1-c1cccc(COc2ccc([C@H]3C[C@@H]3C(=O)O)nc2)c1 [Example 9, (1S,2S)-2-[5-(2′,6′-Diethyl-biphenyl-3-ylmethoxy)-pyridin-2-yl]-cyclopropane-carboxylic Acid] | 62
7 | COc1cc(C)c(-c2cccc(COc3ccc([C@H]4C[C@@H]4C(=O)O)nc3)c2)c(C)c1 [Example 14, (1S,2S)-2-[5-(4′-Methoxy-2′,6′-dimethyl-biphenyl-3-ylmethoxy)-pyridin-2-yl]-cyclopropanecarboxylic Acid] | 27
8 | Cc1cc(-c2ccnn2C)cc(C)c1-c1cccc(COc2ccc([C@H]3C[C@@H]3C(=O)O)nc2)c1 [Example 7, (1S,2S)-2-{5-[2′,6′-Dimethyl-4′-(2-methyl-2H-pyrazol-3-yl)-biphenyl-3-ylmethoxy]-pyridin-2-yl}-cyclopropanecarboxylic Acid] | 11
9 | Cc1cc(-c2nnn(CC(C)(C)O)n2)cc(C)c1-c1ccc(F)c(COc2ccc([C@H]3C[C@@H]3C(=O)O)nc2)c1 [Example 18, (1S,2S)-2-(5-{4-Fluoro-4′-[2-(2-hydroxy-2-methyl-propyl)-2H-tetrazol-5-yl]-2′,6′-dimethyl-biphenyl-3-ylmethoxy}-pyridin-2-yl)-cyclopropanecarboxylic Acid] | 6
10 | COc1ccc(-c2ccc(-c3cc(COc4ccc([C@H]5C[C@@H]5C(=O)O)nc4)ccc3C(F)(F)F)cc2)nn1 [Example 29, (1S,2S)-2-{5-[4′-(6-Methoxy-pyridazin-3-yl)-6-trifluoromethyl-biphenyl-3-ylmethoxy]-pyridin-2-yl}-cyclopropanecarboxylic Acid] | 10
11 | Cc1cc(C(=O)O)cc(C)c1-c1ccc(F)c(COc2ccc([C@H]3C[C@@H]3C(=O)O)nc2)c1 [Example 24, (1S,2S)-3′-[6-(−2-Carboxy-cyclopropyl)-pyridin-3-yloxymethyl]-4′-fluoro-2,6-dimethyl-biphenyl-4-carboxylic Acid] | 2120
12 | COc1cnc(-c2ccc(-c3cc(COc4ccc([C@H]5C[C@@H]5C(=O)O)nc4)ccc3C(F)(F)F)cc2)nc1 [Example 28, (1S,2S)-2-{5-[4′-(5-Methoxy-pyrimidin-2-yl)-6-trifluoromethyl-biphenyl-3-ylmethoxy]-pyridin-2-yl}-cyclopropanecarboxylic Acid] | 4
13 | O=C(O)[C@H]1C[C@@H]1c1ccc(OCc2cccc(-c3c(Cl)cccc3Cl)c2)cn1 [Example 15, (1S,2S)-2-[5-(2′,6′-Dichloro-biphenyl-3-ylmethoxy)-pyridin-2-yl]-cyclopropane-carboxylic Acid] | 24
14 | Cc1cc(OCC2(C)COC2)cc(C)c1-c1ccc(F)c(COc2ccc([C@H]3C[C@@H]3C(=O)O)nc2)c1 [Example 23, (1S,2S)-2-{5-[4-Fluoro-2′,6′-dimethyl-4′-(3-methyl-oxetan-3-ylmethoxy)-biphenyl-3-ylmethoxy]-pyridin-2-yl}-cyclopropanecarboxylic Acid] | 24
15 | Cc1cc(-c2cnccn2)cc(C)c1-c1cccc(COc2ccc([C@H]3C[C@@H]3C(=O)O)nc2)c1 [Example 5, (1S,2S)-2-[5-(2′,6′-Dimethyl-4′-pyrazin-2-yl-biphenyl-3-ylmethoxy)-pyridin-2-yl]-cyclopropanecarboxylic Acid] | 11
16 | Cc1cc(OCC2CCCO2)cc(C)c1-c1cccc(COc2ccc([C@H]3C[C@@H]3C(=O)O)nc2)c1 (stereo partly drawn) [Example 11, (1S,2S)-2-{5-[2′,6′-Dimethyl-4′-(tetrahydro-furan-2-ylmethoxy)-biphenyl-3-ylmethoxy]-pyridin-2-yl}-cyclopropanecarboxylic Acid] | 32
17 | Cc1cnc(-c2cc(C)c(-c3ccc(F)c(COc4ccc([C@H]5C[C@@H]5C(=O)O)nc4)c3)c(C)c2)nc1 [Example 22, (1S,2S)-2-{5-[4-Fluoro-2′,6′-dimethyl-4′-(5-methyl-pyrimidin-2-yl)-biphenyl-3-ylmethoxy]-pyridin-2-yl}-cyclopropanecarboxylic Acid] | 4
18 | COc1cc(-c2cc(C)c(-c3cccc(COc4ccc([C@H]5C[C@@H]5C(=O)O)nc4)c3)c(C)c2)ccn1 [Example 8, (1S,2S)-2-{5-[4′-(2-Methoxy-pyridin-4-yl)-2′,6′-dimethyl-biphenyl-3-ylmethoxy]-pyridin-2-yl}-cyclopropanecarboxylic Acid] | 6
19 | CC(C)(O)CCOc1ccc(-c2cc(COc3ccc([C@H]4C[C@@H]4C(=O)O)nc3)ccc2C(F)(F)F)cc1 [Example 30, (1S,2S)-2-{5-[4′-(3-Hydroxy-3-methyl-butoxy)-6-trifluoromethyl-biphenyl-3-ylmethoxy]-pyridin-2-yl}-cyclopropanecarboxylic Acid] | 12
20 | Cc1cc(OCC(C)(C)O)cc(C)c1-c1ccc(F)c(COc2ccc([C@H]3C[C@@H]3C(=O)O)nc2)c1 [Example 25, (1S,2S)-2-{5-[4-Fluoro-4′-(2-hydroxy-2-methyl-propoxy)-2′,6′-dimethyl-biphenyl-3-ylmethoxy]-pyridin-2-yl}-cyclopropanecarboxylic Acid] | 36
21 | Cc1cc(-c2cnccn2)cc(C)c1-c1ccc(F)c(COc2ccc([C@H]3C[C@@H]3C(=O)O)nc2)c1 [Example 19, (1S,2S)-2-[5-(4-Fluoro-2′,6′-dimethyl-4′-pyrazin-2-yl-biphenyl-3-ylmethoxy)-pyridin-2-yl]-cyclopropanecarboxylic Acid] | 7
22 | Cc1cc(-c2nnn(C)n2)cc(C)c1-c1ccc(F)c(COc2ccc([C@H]3C[C@@H]3C(=O)O)nc2)c1 [Example 17, (1S,2S)-2-{5-[4-Fluoro-2′,6′-dimethyl-4′-(2-methyl-2H-tetrazol-5-yl)-biphenyl-3-ylmethoxy]-pyridin-2-yl}-cyclopropanecarboxylic Acid] | 3
23 | Cc1cc(OCCC(C)(C)O)cc(C)c1-c1cc(COc2ccc([C@H]3C[C@@H]3C(=O)O)nc2)c(F)cc1F [Example 26, (1S,2S)-2-{5-[4,6-Difluoro-4′-(3-hydroxy-3-methyl-butoxy)-2′,6′-dimethyl-biphenyl-3-ylmethoxy]-pyridin-2-yl}-cyclopropanecarboxylic Acid] | 12
24 | Cc1cc(-c2ccnn2C)cc(C)c1-c1ccc(F)c(COc2ccc([C@H]3C[C@@H]3C(=O)O)nc2)c1 [Example 21, (1S,2S)-2-{5-[4-Fluoro-2′,6′-dimethyl-4′-(2-methyl-2H-pyrazol-3-yl)-biphenyl-3-ylmethoxy]-pyridin-2-yl}-cyclopropanecarboxylic Acid] | 6
25 | Cc1cc(O[C@H]2CCOC2)cc(C)c1-c1cccc(COc2ccc([C@H]3C[C@@H]3C(=O)O)nc2)c1 [Example 12, (1S,2S)-2-(5-{2′,6′-Dimethyl-4′-[(S)-(tetrahydrofuran-3-yl)oxy]-biphenyl-3-ylmethoxy}-pyridin-2-yl)-cyclopropanecarboxylic Acid] | 27
26 | Cc1cc(OCCCS(C)(=O)=O)cc(C)c1-c1cccc(COc2ccc([C@H]3C[C@@H]3C(=O)O)nc2)c1 [Example 16, (1S,2S)-2-{5-[4′-(3-Methanesulfonyl-propoxy)-2′,6′-dimethyl-biphenyl-3-ylmethoxy]-pyridin-2-yl}-cyclopropanecarboxylic Acid] | 37
27 | Cc1cnc(-c2cc(C)c(-c3cccc(COc4ccc([C@H]5C[C@@H]5C(=O)O)nc4)c3)c(C)c2)nc1 [Example 2, (1S,2S)-2-{5-[2′,6′-Dimethyl-4′-(5-methyl-pyrimidin-2-yl)-biphenyl-3-ylmethoxy]-pyridin-2-yl}-cyclopropanecarboxylic Acid] | 6
